The text below walks through data of US8193315B2 (Sanford-Burnham Medical Research Institute, priority 2001, dated 2012).

“Also recorded” adds a separate entry of the source. Where two headings read alike, the source gives them in different places.

Common to all, as to assay type: cell-based
Test [1] addresses T1, NR1/NR3B receptors (Rattus norvegicus, UniProt P35439+Q8VHN2).
T1 construct: Full-length cDNAs encoding NMDA receptor subunits were linearized and used as templates for synthesis of cRNA; expressed in transfected cells; host or cells: Xenopus laevis oocytes injected with cRNA
The test is described as follows: Glycine-evoked whole-oocyte currents of NR1/NR3B receptors, dual-electrode voltage clamp in Xenopus oocytes. From the text: NR3B cRNA for oocyte expression was produced as follows. The full-length NR3B cDNA was constructed in the pCMV6-XL4 vector (OriGene Technologies, Inc., Rockville, Md.), which contains a T7 promoter upstream of the cDNA insert. […] The truncated cRNA could potentially encode a dominant negative form of NR3B. Therefore, a new vector was constructed to facilitate production of exclusively full-length NR3B cRNA. Construction of this vector proceeded as follows. NR1 cDNA was excised from the pGEM-HE/NR1 vector (a gift from S. F. Heinemann) by digestion with EcoRI and the two ends of the truncated pGEM-HE vector were re-ligated. The truncated pGEM-HE vector retained the 5′ and 3′ UTRs of the X. laevis β-globin gene for high level protein expression in frog oocytes. The SfoI-KpnI fragment of truncated pGEM-HE, which contains the T7 promoter, was replaced with the PvuII-KpnI fragment of pBluescript II KS, which contains the T3 promoter, to generate pJC32. The abbreviated multiple cloning site of pJC32 was then replaced with the multiple cloning site from pcDNA3.1(+) (Invitrogen, Carlsbad, Calif.) by ligating the 102 bp PmeI fragment of pcDNA3.1(+) into the 3 kb SmaI-EcoRV fragment of pJC32 to generate pJC34. […] The resulting vector, pJC39, contains three rare restriction sites downstream of the multiple cloning site to facilitate linearization prior to in vitro transcription using T3 RNA polymerase.
The full-length NR3B (B4 form) cDNA was then excised from pCMV6-XL4 by digestion with EcoRI and XbaI, and the 3.2 kb fragment was ligated into EcoRI/XbaI-digested pJC39. The resulting vector, pJC42, was linearized with PmeI, and in vitro transcription was performed using the mMessage mMachine T3 kit (Ambion, Inc., Austin, Tex.) according to the manufacturer's instructions.
Micropipettes were filled with 3 M KCl.

In test [2] the target is T2, NR1/NR3A receptors (Rattus norvegicus, UniProt P35439+Q9R1M7).
T2 construct: Full-length cDNAs encoding NMDA receptor subunits were linearized and used as templates for synthesis of cRNA; expressed in transfected cells; host or cells: Xenopus laevis oocytes injected with cRNA
T2 sequence (Q9R1M7 24-1115 isoform Q9R1M7-2 limits assumed, other chains not shown): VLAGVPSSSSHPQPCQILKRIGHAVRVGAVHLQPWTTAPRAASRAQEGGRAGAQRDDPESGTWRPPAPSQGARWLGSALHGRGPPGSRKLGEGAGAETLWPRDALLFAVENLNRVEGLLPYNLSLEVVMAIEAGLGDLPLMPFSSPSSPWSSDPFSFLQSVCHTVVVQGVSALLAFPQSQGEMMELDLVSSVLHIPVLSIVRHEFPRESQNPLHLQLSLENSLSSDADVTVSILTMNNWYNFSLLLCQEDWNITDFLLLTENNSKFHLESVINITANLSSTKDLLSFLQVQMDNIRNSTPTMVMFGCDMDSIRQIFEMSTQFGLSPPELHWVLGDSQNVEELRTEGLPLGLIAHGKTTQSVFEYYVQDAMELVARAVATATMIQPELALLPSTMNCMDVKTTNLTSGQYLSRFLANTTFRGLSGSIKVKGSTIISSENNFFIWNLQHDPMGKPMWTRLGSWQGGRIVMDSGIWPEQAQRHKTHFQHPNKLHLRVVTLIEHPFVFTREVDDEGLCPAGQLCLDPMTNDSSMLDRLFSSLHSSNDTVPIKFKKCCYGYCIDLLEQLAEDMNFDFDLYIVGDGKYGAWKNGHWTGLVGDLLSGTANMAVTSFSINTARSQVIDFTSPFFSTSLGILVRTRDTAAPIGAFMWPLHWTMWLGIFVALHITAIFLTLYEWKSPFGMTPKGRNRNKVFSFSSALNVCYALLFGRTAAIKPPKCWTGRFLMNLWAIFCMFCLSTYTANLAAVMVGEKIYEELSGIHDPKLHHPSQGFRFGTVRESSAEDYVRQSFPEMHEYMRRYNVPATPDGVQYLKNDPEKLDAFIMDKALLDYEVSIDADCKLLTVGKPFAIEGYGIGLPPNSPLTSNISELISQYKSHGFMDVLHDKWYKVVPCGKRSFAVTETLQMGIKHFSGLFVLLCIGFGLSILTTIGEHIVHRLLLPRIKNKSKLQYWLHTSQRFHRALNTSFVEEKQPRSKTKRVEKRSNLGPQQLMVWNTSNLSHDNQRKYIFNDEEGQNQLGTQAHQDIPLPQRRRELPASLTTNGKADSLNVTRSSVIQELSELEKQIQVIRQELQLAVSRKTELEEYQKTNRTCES
The test is described as follows: Glycine-evoked whole-oocyte currents of NR1/NR3A receptors, two-electrode voltage recordings in Xenopus oocytes. For orientation: In two-electrode clamp one electrode senses voltage and the other passes current.

For test [3], the system named is cerebrocortical neurons. The test is described as follows: Single-channel recording from outside-out patches of cerebrocortical neurons.
For test [4], the system named is cultured cerebrocortical neurons.

T1 sequence (Q8VHN2 25-1002, other chains not shown): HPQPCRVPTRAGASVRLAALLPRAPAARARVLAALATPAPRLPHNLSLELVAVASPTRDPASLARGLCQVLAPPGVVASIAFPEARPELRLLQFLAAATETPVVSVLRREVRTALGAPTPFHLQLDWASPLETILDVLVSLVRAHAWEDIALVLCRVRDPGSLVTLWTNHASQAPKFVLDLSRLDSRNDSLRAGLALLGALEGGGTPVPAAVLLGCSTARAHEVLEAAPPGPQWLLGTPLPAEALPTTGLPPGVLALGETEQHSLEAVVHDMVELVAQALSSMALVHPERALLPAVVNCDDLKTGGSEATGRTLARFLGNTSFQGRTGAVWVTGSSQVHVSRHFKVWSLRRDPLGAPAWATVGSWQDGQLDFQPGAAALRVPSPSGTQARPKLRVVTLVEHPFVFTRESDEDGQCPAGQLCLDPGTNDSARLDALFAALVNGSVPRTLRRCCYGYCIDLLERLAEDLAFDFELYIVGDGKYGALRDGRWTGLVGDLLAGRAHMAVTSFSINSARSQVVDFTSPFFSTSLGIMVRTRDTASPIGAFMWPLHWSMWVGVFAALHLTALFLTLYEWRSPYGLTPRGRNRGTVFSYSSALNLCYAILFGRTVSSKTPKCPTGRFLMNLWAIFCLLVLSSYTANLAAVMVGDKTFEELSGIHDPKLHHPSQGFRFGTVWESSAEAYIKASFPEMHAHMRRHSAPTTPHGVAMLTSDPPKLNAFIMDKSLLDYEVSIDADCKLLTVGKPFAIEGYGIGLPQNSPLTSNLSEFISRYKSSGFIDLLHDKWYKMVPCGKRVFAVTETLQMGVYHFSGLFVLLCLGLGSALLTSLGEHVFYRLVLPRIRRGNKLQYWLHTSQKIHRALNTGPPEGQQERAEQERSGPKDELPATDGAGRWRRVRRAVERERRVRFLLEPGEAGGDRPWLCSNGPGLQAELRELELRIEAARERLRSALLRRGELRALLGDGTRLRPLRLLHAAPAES

For the molecule `O=C(O)c1cc(=O)c2c(Cl)cc(Cl)cc2[nH]1` [5,7-DCKA, 5,7-dichlorokynurenate], the “effect on glycine-evoked currents of NR1/NR3B receptors” value in test [1] was “blocks glycine activated currents; also recorded: virtually abolished”.
On to `NC1(C(=O)O)CC1` [ACPC, 1-aminocyclopropanecarboxylic acid], for which the “effect on glycine-evoked currents of NR1/NR3B receptors” value in test [1] was “inhibited”.
Consider `N[C@H](CCCP(=O)(O)O)C(=O)O` [AP5, D-(−)-2-amino-5-phosphonopentanoate], for which, in test [1], the “effect on glycine-evoked currents of NR1/NR3B receptors at 10 μM” value is recorded as “little or no effect”. In addition, in test [2], the “effect on glycine-evoked currents of NR1/NR3A receptors at 10 μM” value was “little or no effect”.
`N[C@H](CO)C(=O)O` [D-serine]: in test [3], the “effect on channel activity (NPo) evoked by 2.5 μM glycine” value is “decreased” and the “effect on glycine-activated single channels of cerebrocortical neurons” value was “inhibited”. Further, in test [4], the “effect on glycine-evoked bursting response of cultured neurons” value is “inhibited” and the “glycine-responsive cells in which glycine-triggered bursting was inhibited” value is 5 of 22. Besides, the “activation of NR1/NR3B receptors by the substance alone (without co-agonist)” value (shortened to “activation … (without co-agonist)”) in test [1] (Xenopus oocytes) is given as “evokes small NR1/NR3B currents alone; also recorded: activated NR1/NR3B receptors in the absence of glycine; also recorded: evoked small currents alone”. In addition, the “effect on glycine-evoked currents of NR1/NR3B receptors” value in test [1] (Xenopus oocytes, glycine 10 μM, NMDA or L-glutamate 100 μM unless otherwise indicated) is given as “dose-dependently inhibits currents in the presence of glycine; also recorded: inhibited the glycine response”. In test [2] (Xenopus oocytes), the “activation of NR1/NR3A receptors by the substance alone” value was “did not independently manifest any agonist activity” and the “effect on glycine-evoked currents of NR1/NR3A receptors” value is recorded as “even more potent antagonist”.
In the case of `N[C@@H](CCC(=O)O)C(=O)O` [L-glutamate], in test [1], the “activation … (without co-agonist)” value is given as “did not evoke glycine-independent responses; also recorded: did not evoke a glycine-independent response” and the “effect on glycine-evoked currents of NR1/NR3B receptors” value was “little or no effect; also recorded: did not potentiate glycine-evoked currents”. The “effect on glycine-evoked currents of NR1/NR3A receptors” value in test [2] is on record as “did not potentiate glycine-evoked currents”.
Take `C[C@]12N[C@H](Cc3ccccc31)c1ccccc12` [MK-801]: the “sensitivity of NR1/NR3B receptors to open-channel blocker compared to NR1/NR2A receptors” value in test [1] is “drastically less sensitive”. The “sensitivity of NR1/NR3A receptors to open-channel blocker compared to NR1/NR2A receptors” value in test [2] was “drastically less sensitive”.
As to `[Mg+2]` [Mg^2+], in test [3], the “effect on channel activity (NPo) evoked by 2.5 μM glycine” value is listed as “little effect” and the “effect on glycine-activated single channels of cerebrocortical neurons” value is on record as “little effect”. In addition, the “sensitivity of NR1/NR3B receptors to open-channel blocker compared to NR1/NR2A receptors” value in test [1] was “drastically less sensitive”. For the same molecule, in test [2], the “sensitivity of NR1/NR3A receptors to open-channel blocker compared to NR1/NR2A receptors” value is listed as “drastically less sensitive”.
As for `CN[C@H](CC(=O)O)C(=O)O` [NMDA, N-methyl-D-aspartate], in test [1], the “activation … (without co-agonist)” value is given as “did not evoke glycine-independent responses; also recorded: did not evoke a glycine-independent response” and the “effect on glycine-evoked currents of NR1/NR3B receptors” value is “little or no effect; also recorded: did not potentiate glycine-evoked currents”. The “effect on glycine-evoked currents of NR1/NR3A receptors” value in test [2] is given as “did not potentiate glycine-evoked currents”.
For the molecule `NCC(=O)O` [glycine], the “recordings in which glycine triggered neuronal bursting” value in test [4] is reported as 22 of 26.
Consider `NC1=N[C@H](O)[C@H]2[C@H]3O[C@]4(O)O[C@@H]([C@@H](O)[C@@]2(N1)[C@@H]4O)[C@]3(O)CO` [tetrodotoxin], for which the “effect on glycine-evoked bursting response of cultured neurons” value in test [4] is given as “inhibited”.
